Measurements reported in patent US20230338532A1, “IMMUNOSUPPRESSANT DRUG RESISTANT ARMORED TCR T CELLS FOR IMMUNE-THERAPY OF ORGAN TRANSPLANT PATIENTS” (priority 2020, published 2023).

Legend:
Assay type in all cases: cell-based, human
HepG2.2.15 cells [1] = test: T cell cytolysis by impedance measurement (real time killing assay); conditions: clinically relevant doses, FIG. 1B
Method: (§1) FIGS. 1A and 1B show functional profiles of 5183-electroporated T cells treated with tacrolimus. Cytokine production (TNF-α as a representative) of drug-treated S183 TCR-T cells was evaluated following overnight co-culture with HepG2.215 cells. FIG. 1A: Concatenated dot plots (left panel) from representative experiments stained for TNF-α production. […] Non-treated electroporated T cells used as negative control. FIG. 1B: Drug effect on T cell cytolysis determined through impedance measurement. The Normalized Cell Index plot was converted to an area under the curve, and quantified to measure the percentage of cytolysis ˜45 hours after S183-TCR T cell addition. Each dot represents one individual experiment in bar graphs. Statistical significance was evaluated by 2-tailed t test. […]
FIGS. 6A, 6B and 6C show dual-resistant TCR-redirected T cells were produced by electroporating 3 mRNAs (HBV TCR, CnB mutant and IMPDH mutant) into the T cells. FIG. 6A: Frequency of TNF-α-producing CD8+ cells out of total live CD8 T cells was quantified following overnight incubation with the targets (n=3). […] FIG. 6B: T cell cytolysis determined by real time killing assay in the presence and absence of both drugs. […] FIG. 6C: Viability of dual resistant TCR-T cells evaluated 72 hours after exposure to clinically relevant concentration of both drugs.

HepG2.2.15 cells [2] = test: TNF-α production of TCR T cells after overnight co-culture with HepG2.2.15 cells; conditions: clinically relevant concentration
Method: as §1, with “Each dot represents one individual experiment in bar graphs.” left out
FIG. 3A: S183 TCR and mutant CnB m-RNA were co-electroporated and T cell function was evaluated following overnight co-culture with HepG2.2.15 cells. FIG. 3B: Viability and TCR expression of engineered T cells evaluated 24 hours post-electroporation. […] FIG. 3C: Frequency of TNF-α-producing CD8+ cells out of total live CD8+ T cells were quantified following overnight incubation with the targets (n=3). […]
FIG. 5A: Sequence information of siRNA specific for FKBP1A. FIG. 5B: Frequency of TNF-α-producing CD8+ cells out of total live CD8+ T cells were quantified following overnight incubation with the targets and different concentrations of Tacrolimus (n=3). […]

T cells = test: Viability of engineered T cells exposed to immunosuppressants; conditions: clinically relevant concentration, 48 hours exposure
Method: Intracellular cytokine staining and viability analysis were performed at the indicated time after treatment.

C=CC[C@@H]1/C=C(\C)C[C@H](C)C[C@H](OC)[C@H]2O[C@@](O)(C(=O)C(=O)N3CCCC[C@H]3C(=O)O[C@H](/C(C)=C/[C@@H]3CC[C@@H](O)[C@H](OC)C3)[C@H](C)[C@@H](O)CC1=O)[C@H](C)C[C@@H]2OC [Tacrolimus]
loss of cytolytic activity of treated T cells (HepG2.2.15 cells [1]): ≤ 50 % of the non-treated control | effect on T cell TNF-α production (HepG2.2.15 cells [2]; 12 hours incubation with HepG2.2.15 cells): can impair T cell TNF-α production

COc1c(C)c2c(c(O)c1C/C=C(\C)CCC(=O)OCCN1CCOCC1)C(=O)OC2 [MMF, Mycophenolate mofetil]
effect on viability of modified TCR-T cells (T cells): markedly decreases the viability | effect on T cell function and killing (HepG2.2.15 cells [2]): does not impair T cell function and killing
